According to patent publication US6740657B2, “Aminomethyl-pyrroloquinazoline compounds as thrombin receptor antagonists” (Ortho-McNeil Pharmaceutical, Inc., priority 2001, dated 2004):
Read-outs that look alike come from different tables or passages of the source.

Experiments:
[1] = tested on: platelet aggregation stimulated by TRAP-6 (gel-filtered platelets); assay: In vitro inhibition of TRAP-6-induced gel-filtered platelet aggregation; format: cell-based, Human; settings: for IC50: agonist TRAP-6, read-out: GFP Aggr. IC50 (μM), TRAP-6; for inhibition at 50 µM: read-out: GFP Aggr. % Inhibition, TRAP-6
Description: (§1) In Vitro Inhibition of Thrombin-Induced Gel-Filtered Platelet Aggregation Assay
(§2) The percentage of platelet aggregation is calculated as an increase in light transmission of compound-treated platelet concentrate vs. control-treated platelet concentrate. Human blood is obtained from drug free, normal donors in tubes containing 0.13 M sodium citrate. Platelet rich plasma (PRP) is collected by centrifugation of whole blood at 200×g for 10 min at 25° C. The PRP (5 mL) is gel filtered through Sepharose 2B (bed volume 50 mL), and the platelet count is adjusted to 2×10^7 platelets per sample. The following constituents are added to a siliconized cuvette: concentrated platelet filtrate and Tyrode's buffer (0.14 M NaCl, 0.0027 M KCl, 0.012 M NaHCO3, 0.76 mM Na2HPO4, 0.0055 M glucose, 2 mg/mL BSA and 5.0 mM HEPES@pH 7.4) in an amount equal to 350 μL, 50 μL of 20 mM calcium and 50 μL of the test compound. Aggregation is monitored in a BIODATA aggregometer for the 3 min following the addition of agonist (thrombin 50 μL of 1 unit/mL).
(§3) Table 5 contains IC50 values (μM) or % inhibition@50 μM of the compounds against platelet aggregation stimulated (GFP Aggr.) by thrombin or TRAP-6 (Thr or TRAP-6) and IC50 values (μM) in a thrombin receptor (PAR-1) binding assay (Binding). The compounds of Table 5 correspond to those shown on Table 4.

[2] = tested on: platelet aggregation stimulated by thrombin (gel-filtered platelets); assay: In vitro inhibition of thrombin-induced gel-filtered platelet aggregation; format: cell-based, Human; settings: agonist thrombin; for IC50: read-out: GFP Aggr. IC50 (μM), Thr; for inhibition at 50 µM: Homo sapiens, Platelet, read-out: GFP Aggr. % Inhibition, Thr
Description: as §1, §2, §3

[3] = molecular target: T1, thrombin receptor (PAR-1) (Homo sapiens, UniProt P25116); assay: In vitro thrombin receptor binding assay (CHRF membranes, tritiated 721-40); settings: thrombin receptor (PAR-1) binding, read-out: Binding IC50 (μM), Thr.
T1 construct: CHRF membranes (Jones, Biochim. Biophys. Acta 1992, 1136, 272) are thawed from −70° C; endogenous in cells; the full cell line name is own knowledge
T1 sequence (P25116 22-425): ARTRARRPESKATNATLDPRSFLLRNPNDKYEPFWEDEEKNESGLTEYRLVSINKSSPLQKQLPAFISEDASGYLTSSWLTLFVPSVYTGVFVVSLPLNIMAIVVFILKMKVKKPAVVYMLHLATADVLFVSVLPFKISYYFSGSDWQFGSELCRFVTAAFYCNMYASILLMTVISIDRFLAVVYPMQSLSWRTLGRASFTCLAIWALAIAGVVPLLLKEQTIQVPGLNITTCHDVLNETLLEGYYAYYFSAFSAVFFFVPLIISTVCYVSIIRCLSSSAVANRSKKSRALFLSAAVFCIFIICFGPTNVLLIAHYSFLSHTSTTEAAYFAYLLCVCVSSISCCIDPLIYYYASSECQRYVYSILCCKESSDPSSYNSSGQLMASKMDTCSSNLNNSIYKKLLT
Description: In Vitro Thrombin Receptor Binding Assay
CHRF membranes (Jones, Biochim. Biophys. Acta 1992, 1136, 272) are thawed from −70° C., centrifuged at maximum speed for 5 min, washed twice with binding buffer (50 mM HEPES containing 5 mM MgCl2 and 0.1% BSA), and re-suspended in binding buffer (25 μg/[…]). 100 μL of membranes are added to the 24-Wallac plates and delivered to the Tomtech apparatus. In a typical experiment, 6 μL of samples (from a 125 μg/mL intermediary plate, 20% DMSO) and 44 μL buffer are delivered to the plates (final conc. of compounds is 3.7 μg/mL, 0.6% DMSO). Similarly, 6 μL 20% DMSO and 44 μL buffer are delivered to both column 1 (NSB) and column 12 (TB). 10 μL Ser-pFPhe-hArg-Leu-hArg-Lys-Tyr-NH2 (721-40; 500 μM in deionized water) is added to column 1.50 μL tritiated 721-40 (specific activity 46 Ci/mmol) is added to all the wells. The plates are mixed well for 20 seconds, incubated for 30 min, and then harvested with 10 mM HEPES/138 mM NaCl using the Skatron harvester. The filters (GF/C Brandel FPXLR 296) are presoaked 3 h in 0.5% polyethylenimine in HEPES/0.1M N-acetylglucosamine) are set in saran wrap and dried for 3 min in the microwave, and placed in sample bags (Wallac 1450-432). 4.5 mL scintillation fluid (Wallac, Betaplate Scint 1205-440) is added. The bags are sealed, placed in filter cassettes (Wallac 1450-104), and analyzed on the microbeta counter. […]

[4] = Homo sapiens, Platelet, agonist TRAP-6, % inhibition @ 50 μM

Compound `CN(C)Cc1cn(Cc2c(Cl)cccc2Cl)c2ccc3nc(N[C@@H](Cc4ccccc4)C(=O)N[C@@H](CCN)C(=O)NCc4ccccc4)nc(N)c3c12` [Compound 2, α-[[1-amino-7-[(2,6-dichlorophenyl)methyl]-9-[(dimethylamino)methyl]-7H-pyrrolo[3,2-f]quinazolin-3-yl]amino]-N-[(1S)-3-amino-1-[[(phenylmethyl)amino]carbonyl]propyl]-(α^1S)-benzenepropanamide] has an IC50 [1] of 3 µM and an IC50 [2] of 13 µM.

Compound `CN(C)Cc1cn(Cc2c(Cl)cccc2Cl)c2ccc3nc(N(C)C)nc(N)c3c12` [Compound 3, 7-[(2,6-dichlorophenyl)methyl]-9-[(dimethylamino)methyl]-N^3,N^3-dimethyl-7H-pyrrolo[3,2-f]quinazoline-1,3-diamine] has an inhibition at 50 µM [1, 4] of 40% and an inhibition at 50 µM ([2]; % inhibition @ 50 μM) of 27%.

In the case of `CN(C)Cc1cn(Cc2c(Cl)cccc2Cl)c2ccc3nc(NC4CC4)ncc3c12` [Compound 4, 3-(cyclopropylamino)-7-[(2,6-dichlorophenyl)methyl]-N,N-dimethyl-7H-pyrrolo[3,2-f]quinazoline-9-methanamine], the inhibition at 50 µM [1, 4] is reported as 20% and the inhibition at 50 µM ([2]; % inhibition @ 50 μM) is reported as 30%.

For `Nc1nc(Cl)nc2ccc3c(c(CN4CCCC4)cn3Cc3c(Cl)cccc3Cl)c12` [Compound 5, 3-chloro-7-[(2,6-dichlorophenyl)methyl]-9-(1-pyrrolidinylmethyl)-7H-pyrrolo[3,2-f]quinazolin-1-amine], the “GFP Aggr. % Inhibition, TRAP-6” value ([1]; agonist TRAP-6, % inhibition @ 50 μM) was 32% and the “GFP Aggr. % Inhibition, Thr” value ([2]; % inhibition @ 50 μM) was 16%.

Compound `COc1nc(Cl)nc2ccc3c(c(CN(C)C)cn3Cc3c(Cl)cccc3Cl)c12` [Compound 6, 3-chloro-7-[(2,6-dichlorophenyl)methyl]-1-methoxy-N,N-dimethyl-7H-pyrrolo[3,2-f]quinazoline-9-methanamine] has an IC50 ([1]; Homo sapiens, Platelet) of 31 µM and an inhibition at 50 µM ([2]; % inhibition @ 50 μM) of 40%.

`CN(C)Cc1cn(Cc2c(Cl)cccc2Cl)c2ccc3nc(Cl)nc(N)c3c12` [Compound 7, 1-amino-3-chloro-7-[(2,6-dichlorophenyl)methyl]-N,N-dimethyl-7H-pyrrolo[3,2-f]quinazoline-9-methanamine] was tested, and the inhibition at 50 µM [1, 4] was 3% and the inhibition at 50 µM ([2]; % inhibition @ 50 μM) was 14%.

“N^3-cyclopropyl-7-[(2,6-dichlorophenyl)methyl]-9-[(dimethylamino)methyl]-7H-pyrrolo[3,2-f]quinazoline-1,3-diamine [Compound 1]” gave an IC50 [3] of 9.6 µM, an IC50 [1] of 13 µM and an IC50 [2] of 21 µM.
